The subject of one series is BaF3. The experiment in a line: Antiproliferative activity against mouse BAF3 cells harboring CCDC6-RET fusion protein after 72 hrs by CCK8 assay. Particulars: BaF3, 72 h; call rule not given here. On the technique in general: Formazan colour is commonly taken as a measure of viable cells.
Series [1] has as its target Proto-oncogene tyrosine-protein kinase receptor Ret (Mus musculus) (UniProt P35546). Nature of the series: Inhibition of RET in mouse BAF3 cells harboring CCDC6-RET fusion protein assessed as suppression of RET phosphorylation after 2 hrs by Western blot method. The class given is cell-based. On the technique in general: A western blot detects proteins with antibodies after separation by electrophoresis.

The target is the same in series [2]. The experiment in a line: Inhibition of RET phosphorylation in mouse BAF3 cells harboring CCDC6-RET fusion protein after 2 hrs by Western blot method. The series is classed as cell-based.
The target is the same in series [3]. The experiment in a line: Inhibition of RET in mouse BAF3 cells harboring CCDC6-RET fusion protein assessed as suppression of STAT3 phosphorylation after 2 hrs by Western blot method. The series is classed as cell-based.
Series [4] has as its target Vascular endothelial growth factor receptor 2 (Homo sapiens, UniProt P35968). The experiment in a line: Inhibition of VEGFR2 (unknown origin) at 1 uM.
The target of series [5] is Proto-oncogene tyrosine-protein kinase receptor Ret (Mus musculus) (UniProt P35546). Nature of the series: Inhibition of RET in mouse BAF3 cells harboring CCDC6-RET fusion protein assessed as suppression of AKT phosphorylation after 2 hrs by Western blot method. The series is classed as cell-based.
Chain of Proto-oncogene tyrosine-protein kinase receptor Ret (Mus musculus) (P35546 whole entry, the tested form may be a part): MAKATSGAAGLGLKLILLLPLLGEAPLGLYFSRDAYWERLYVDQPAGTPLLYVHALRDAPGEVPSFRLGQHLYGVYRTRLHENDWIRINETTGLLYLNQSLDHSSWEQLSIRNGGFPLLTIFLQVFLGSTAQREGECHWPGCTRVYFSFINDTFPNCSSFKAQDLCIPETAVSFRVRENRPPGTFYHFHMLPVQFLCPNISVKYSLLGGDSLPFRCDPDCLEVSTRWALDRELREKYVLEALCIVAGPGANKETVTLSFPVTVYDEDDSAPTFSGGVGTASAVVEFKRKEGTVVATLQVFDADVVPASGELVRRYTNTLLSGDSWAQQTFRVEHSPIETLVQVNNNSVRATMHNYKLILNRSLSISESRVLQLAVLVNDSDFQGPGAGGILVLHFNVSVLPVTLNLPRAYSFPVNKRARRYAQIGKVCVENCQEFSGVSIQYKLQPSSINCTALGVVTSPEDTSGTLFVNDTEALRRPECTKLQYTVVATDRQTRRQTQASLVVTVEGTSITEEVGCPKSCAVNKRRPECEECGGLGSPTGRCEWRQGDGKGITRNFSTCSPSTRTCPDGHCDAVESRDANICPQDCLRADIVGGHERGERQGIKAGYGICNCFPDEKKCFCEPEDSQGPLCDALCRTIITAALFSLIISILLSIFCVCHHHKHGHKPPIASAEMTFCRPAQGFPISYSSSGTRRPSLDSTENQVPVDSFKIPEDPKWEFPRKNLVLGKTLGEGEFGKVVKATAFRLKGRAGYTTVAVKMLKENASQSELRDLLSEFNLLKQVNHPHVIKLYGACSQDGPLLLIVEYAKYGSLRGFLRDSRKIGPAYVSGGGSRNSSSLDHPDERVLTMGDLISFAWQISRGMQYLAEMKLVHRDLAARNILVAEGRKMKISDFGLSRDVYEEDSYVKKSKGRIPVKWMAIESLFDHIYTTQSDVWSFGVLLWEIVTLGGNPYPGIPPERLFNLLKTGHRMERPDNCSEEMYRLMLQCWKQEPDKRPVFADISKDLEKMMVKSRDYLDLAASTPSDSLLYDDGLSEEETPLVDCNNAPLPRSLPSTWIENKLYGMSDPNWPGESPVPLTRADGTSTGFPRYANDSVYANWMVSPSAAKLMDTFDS
The target of series [6] is Proto-oncogene tyrosine-protein kinase receptor Ret (Homo sapiens, UniProt P07949). The experiment in a line: Inhibition of recombinant RET (unknown origin) using poly (Glu,Tyr) 4:1 substrate after 60 mins by ELISA. (In general: ELISA stands for enzyme-linked immunosorbent assay.)
Chain of Proto-oncogene tyrosine-protein kinase receptor Ret (P07949 whole entry): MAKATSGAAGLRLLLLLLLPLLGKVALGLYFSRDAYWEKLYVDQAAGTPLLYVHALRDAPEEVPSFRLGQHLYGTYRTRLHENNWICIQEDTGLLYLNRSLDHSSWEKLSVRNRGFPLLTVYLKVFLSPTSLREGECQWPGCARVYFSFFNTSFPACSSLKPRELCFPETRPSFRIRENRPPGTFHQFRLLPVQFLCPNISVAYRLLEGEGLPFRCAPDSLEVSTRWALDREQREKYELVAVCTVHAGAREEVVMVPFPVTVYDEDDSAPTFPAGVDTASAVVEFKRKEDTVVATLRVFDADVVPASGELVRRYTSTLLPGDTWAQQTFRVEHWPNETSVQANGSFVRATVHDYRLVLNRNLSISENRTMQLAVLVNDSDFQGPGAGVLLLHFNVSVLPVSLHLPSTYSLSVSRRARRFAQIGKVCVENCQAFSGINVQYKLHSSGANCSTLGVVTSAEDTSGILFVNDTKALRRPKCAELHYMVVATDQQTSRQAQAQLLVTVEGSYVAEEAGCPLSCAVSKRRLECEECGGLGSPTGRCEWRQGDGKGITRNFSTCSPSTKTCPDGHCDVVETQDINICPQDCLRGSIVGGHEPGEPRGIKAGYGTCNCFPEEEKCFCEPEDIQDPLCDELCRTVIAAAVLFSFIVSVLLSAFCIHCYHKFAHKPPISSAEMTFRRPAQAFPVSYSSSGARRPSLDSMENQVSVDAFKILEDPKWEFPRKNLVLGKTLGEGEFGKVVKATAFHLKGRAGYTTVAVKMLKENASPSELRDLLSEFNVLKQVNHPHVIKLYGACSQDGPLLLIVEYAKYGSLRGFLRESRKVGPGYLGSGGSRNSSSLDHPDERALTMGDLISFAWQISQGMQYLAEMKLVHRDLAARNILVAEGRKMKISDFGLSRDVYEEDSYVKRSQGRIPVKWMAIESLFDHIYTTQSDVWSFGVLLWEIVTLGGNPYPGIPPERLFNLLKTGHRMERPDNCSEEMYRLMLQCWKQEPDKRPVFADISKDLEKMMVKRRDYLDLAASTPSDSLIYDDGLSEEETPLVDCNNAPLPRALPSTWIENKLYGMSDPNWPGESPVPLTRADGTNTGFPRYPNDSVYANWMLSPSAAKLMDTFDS

Chain of Vascular endothelial growth factor receptor 2 (P35968 whole entry, the tested form may be a part): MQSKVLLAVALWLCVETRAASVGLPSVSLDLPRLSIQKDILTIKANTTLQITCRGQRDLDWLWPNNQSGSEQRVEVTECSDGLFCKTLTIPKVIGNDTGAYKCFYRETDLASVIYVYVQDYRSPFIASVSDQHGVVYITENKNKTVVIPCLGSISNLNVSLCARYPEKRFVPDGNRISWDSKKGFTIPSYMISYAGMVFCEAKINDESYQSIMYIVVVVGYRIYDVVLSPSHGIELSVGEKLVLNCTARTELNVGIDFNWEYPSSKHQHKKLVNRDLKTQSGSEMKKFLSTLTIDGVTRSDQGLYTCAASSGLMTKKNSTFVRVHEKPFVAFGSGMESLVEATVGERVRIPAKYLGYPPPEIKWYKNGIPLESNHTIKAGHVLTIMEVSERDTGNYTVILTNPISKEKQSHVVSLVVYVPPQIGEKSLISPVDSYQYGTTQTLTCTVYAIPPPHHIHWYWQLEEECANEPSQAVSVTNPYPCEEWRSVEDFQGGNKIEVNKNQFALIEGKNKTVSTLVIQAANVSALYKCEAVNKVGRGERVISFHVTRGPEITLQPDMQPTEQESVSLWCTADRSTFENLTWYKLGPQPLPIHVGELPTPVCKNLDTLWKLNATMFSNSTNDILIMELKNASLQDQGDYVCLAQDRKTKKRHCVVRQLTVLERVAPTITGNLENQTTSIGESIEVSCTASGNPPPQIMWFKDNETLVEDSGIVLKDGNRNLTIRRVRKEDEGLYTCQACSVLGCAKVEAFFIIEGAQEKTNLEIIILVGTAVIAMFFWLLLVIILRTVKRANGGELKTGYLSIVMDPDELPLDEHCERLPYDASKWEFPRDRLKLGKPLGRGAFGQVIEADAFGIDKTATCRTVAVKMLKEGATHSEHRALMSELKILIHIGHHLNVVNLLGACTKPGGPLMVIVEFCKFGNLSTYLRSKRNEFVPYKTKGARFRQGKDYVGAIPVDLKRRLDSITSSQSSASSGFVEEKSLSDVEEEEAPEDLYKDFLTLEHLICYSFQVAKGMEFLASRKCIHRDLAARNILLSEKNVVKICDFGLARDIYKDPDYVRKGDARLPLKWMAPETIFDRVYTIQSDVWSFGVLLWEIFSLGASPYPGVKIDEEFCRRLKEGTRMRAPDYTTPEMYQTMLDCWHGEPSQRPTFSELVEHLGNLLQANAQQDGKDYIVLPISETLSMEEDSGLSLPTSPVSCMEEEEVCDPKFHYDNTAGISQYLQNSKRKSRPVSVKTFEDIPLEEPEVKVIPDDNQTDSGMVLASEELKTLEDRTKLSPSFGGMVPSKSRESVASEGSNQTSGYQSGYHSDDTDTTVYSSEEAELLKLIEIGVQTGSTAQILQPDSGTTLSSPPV

`CC(C)n1nc(-c2cc(CO)on2)c2c(N)ncnc21`: half-maximal inhibition in the series with BaF3 (IC50) required 454 nM.

Take `CC(O)c1cc(-c2nn(C(C)C)c3ncnc(N)c23)no1` (centres undefined): the inhibition entry in series [1], in series [2], in series [3] and in series [5] was “Dose-dependent effect” in each case. Besides, the half-inhibitory concentration (IC50) (usually the concentration that gives 50% inhibition) in the series with BaF3 is 433 nM. The “inhibition (INH)” value in series [4] is on record as “Not Active”.

`CC(C)n1nc(C#Cc2ccccc2)c2c(N)ncnc21`: the IC50 in series [6] was 56.5 nM; in the series on BaF3, greater than 1000 nM.

These data come from ChEMBL document CHEMBL4028821, “Synthesis and structure-activity relationship study of pyrazolo[3,4-d]pyrimidines as tyrosine kinase RET inhibitors” (Bioorg Med Chem Lett, 2017).
